In brackets after ≈: the same amount, converted by molar mass. Activity calls are given as the source filed them. No cut-off for these calls is given here.
Key:
[1] = system: Staphylococcus epidermidis; experiment: (§1) Antibiofilm activity against Staphylococcus epidermidis ATCC 35984 assessed as 12 hrs pre-established supernatant viable cell count at 0.04 umol/mesh after 20 hrs by […] using compound impregnated in polypropylene mesh (Rvb =7.7 x 10^8 CFU/ml); type: functional
BMDM [2] = experiment: Inhibition of IL-6 production in C57Bl/6 mouse BMDM cells at 10 uM pretreated prior to LPS-stimulation measured on day 7 by ELISA; type: functional, cell-based; details: C57BI/6
[3] = system: Staphylococcus epidermidis; experiment: as §1, with “biofilm” for “supernatant”, “0.16” for “0.04”, “(reference value: 8.6” for “(Rvb =7.7”, “10^9” for “10^8”; type: functional
[4] = system: Staphylococcus epidermidis; experiment: Antibiofilm activity against Staphylococcus epidermidis ATCC 35984 assessed as 12 hrs pre-established biofilm viable cell count after 20 hrs (reference value: 1.2 x 10^10 CFU/ml); type: functional
Pseudomonas aeruginosa = experiment: Antibacterial activity against Pseudomonas aeruginosa ATCC 27853 at 658 uM incubated overnight by broth microdilution method; type: functional, organism-based
[5] = system: Staphylococcus epidermidis; experiment: Antibiofilm activity against Staphylococcus epidermidis ATCC 35984 assessed as 12 hrs pre-established supernatant viable cell count at 0.01 umol/mesh after 20 hrs by […] using compound impregnated in polypropylene mesh (Rvb =7.7 x 10^8 CFU/ml); type: functional
[6] = Induction of apoptosis in C57Bl/6 mouse BMDM cells assessed as viable cells at 160 uM by annexin V-FITC/DAPI staining-based flow cytometric analysis (reference value: 46.7%); type: functional; details: C57BI/6, BMDM, read-out: Activity
[7] = Induction of apoptosis in C57Bl/6 mouse BMDM cells assessed as early apoptotic cells at 80 uM by annexin V-FITC/DAPI staining-based flow cytometric analysis (reference value: 0.49%); type: functional, C57BI/6
BMDM [8] = experiment: Inhibition of TNFalpha production in C57Bl/6 mouse BMDM cells at 40 to 80 uM pretreated prior to LPS-stimulation measured on day 7 by ELISA; type: functional, cell-based; details: C57BI/6
[9] = system: Staphylococcus epidermidis; experiment: as §1, with “biofilm” for “supernatant”, “(reference value: 8.6” for “(Rvb =7.7”, “10^9” for “10^8”; type: functional
[10] = system: Staphylococcus epidermidis; experiment: Antibacterial activity against Staphylococcus epidermidis ATCC 35984 incubated overnight by broth microdilution method; type: functional
BMDM [11] = experiment: Decrease in IL-1beta production in C57Bl/6 mouse BMDM cells at 2.5 to 80 uM pretreated for 1 hr prior to ATP-stimulation by ELISA; type: functional, cell-based; details: C57BI/6
BMDM [12] = experiment: Inhibition of IL-6 production in C57Bl/6 mouse BMDM cells at 5 uM pretreated prior to LPS-stimulation measured on day 7 by ELISA; type: functional, cell-based; details: C57BI/6
[13] = system: Staphylococcus epidermidis; experiment: Antibiofilm activity against Staphylococcus epidermidis ATCC 35984 assessed as 24 hrs pre-established biofilm viable cell count after 20 hrs (reference value: 1.4 x 10^10 +/- 2.6 x 10^9 CFU/ml); type: functional
[14] = system: Staphylococcus epidermidis; experiment: Antibiofilm activity against Staphylococcus epidermidis ATCC 35984 assessed as 12 hrs pre-established supernatant viable cell count at 0.08 umol/mesh after 20 hrs by […] using compound impregnated in polypropylene mesh (Rvb =7.7 x 10^8 CFU/ml); type: functional
BMDM [15] = experiment: Inhibition of IL10 production in C57Bl/6 mouse BMDM cells by ELISA; type: functional, cell-based; details: C57BI/6
Staphylococcus aureus [16] = experiment: Antibiofilm activity against Staphylococcus aureus ATCC 35556 assessed as inhibition of 24 hrs pre-established biofilm formation at 0.064 umol/well after 20 hrs by safranin staining-based method; type: functional, organism-based
[17] = Induction of apoptosis in C57Bl/6 mouse BMDM cells assessed as viable cells at 2.5 uM by annexin V-FITC/DAPI staining-based flow cytometric analysis (reference value: 46.7%); type: functional; details: C57BI/6, BMDM, read-out: Activity
BMDM [18] = experiment: Increase in IL-1beta production in C57Bl/6 mouse BMDM cells at 20 uM pretreated for 1 hr prior to ATP-stimulation by ELISA; type: functional, cell-based; details: C57BI/6
[19] = Induction of apoptosis in C57Bl/6 mouse BMDM cells assessed as early apoptotic cells at 20 uM by annexin V-FITC/DAPI staining-based flow cytometric analysis (reference value: 0.49%); type: functional, C57BI/6
Staphylococcus aureus [20] = experiment: Antibacterial activity against Staphylococcus aureus ATCC 25923 incubated overnight by broth microdilution method; type: functional
[21] = system: Staphylococcus epidermidis; experiment: Antibiofilm activity against Staphylococcus epidermidis ATCC 35984 assessed as induction of loosely attached live and dead bacteria in 12 hrs pre-established biofilm at 0.064 umol/well after 20 hrs by fluorescence staining-based confocal microscopic analysis; type: functional, organism-based
[22] = Induction of apoptosis in C57Bl/6 mouse BMDM cells assessed as late apoptotic cells at 20 uM by annexin V-FITC/DAPI staining-based flow cytometric analysis (reference value: 28.4%); type: functional, C57BI/6
[23] = system: Staphylococcus epidermidis; experiment: Antibiofilm activity against Staphylococcus epidermidis ATCC 35984 assessed as 3 hrs pre-established biofilm viable cell count after 20 hrs (reference value: 1 x 10^10 CFU/ml); type: functional
[24] = Cytotoxicity against C57Bl/6 mouse BMDM cells assessed as cell viability at <=80 uM after 72 hrs by MTS assay; type: cell-based, C57BI/6
[25] = Induction of apoptosis in C57Bl/6 mouse BMDM cells assessed as viable cells at 40 uM by annexin V-FITC/DAPI staining-based flow cytometric analysis (reference value: 46.7%); type: functional; details: C57BI/6, BMDM, read-out: Activity
[26] = Induction of apoptosis in C57Bl/6 mouse BMDM cells assessed as dead cells at 20 uM by annexin V-FITC/DAPI staining-based flow cytometric analysis (reference value: 24.4%); type: functional, C57BI/6
[27] = system: Staphylococcus epidermidis; experiment: Antibiofilm activity against Staphylococcus epidermidis ATCC 35984 assessed as inhibition of 12 hrs pre-established biofilm formation after 20 hrs by safranin staining-based UV-visible spectroscopic analysis using compound impregnated in polypropylene mesh; type: functional, organism-based

CC(C)=CCC[C@H](C)[C@@H]1CC[C@@H](C)c2c(O)cc(C(=O)O)cc21
Activity [1]: 1.5 ×10⁷ CFU/ml
inhibition (BMDM [2]): inactive
Activity [3]: 3.9 ×10⁴ CFU/ml
Activity [4]: 6 ×10³ CFU/ml
Activity (Pseudomonas aeruginosa): inactive
Activity [5]: 3.4 ×10⁸ CFU/ml
viability at 160 µM [6]: 53%
Activity [7]: 0.81%
inhibition (BMDM [8]): Active
Activity [9]: 6.7 ×10⁸ CFU/ml
MBC [10]: 82 µM (≈ 25.9 µg/mL)
MIC [10]: 82 µM (≈ 25.9 µg/mL)
Activity (BMDM [11]): inactive
inhibition (BMDM [12]): Active
Activity [13]: 4.2 ×10⁸ CFU/ml
Activity [14]: 4.4 ×10⁴ CFU/ml
inhibition (BMDM [15]): inactive
inhibition (Staphylococcus aureus [16]): Active
viability at 2.5 µM [17]: 51.4%
Activity (BMDM [18]): inactive
Activity [19]: 4.05%
MBC (Staphylococcus aureus [20]): 82 µM (≈ 25.9 µg/mL)
MIC (Staphylococcus aureus [20]): 41 µM (≈ 13 µg/mL)
Activity [21]: Active
Activity [22]: 27%
Activity [23]: 0 CFU/ml
Activity [24]: Non-toxic
viability at 40 µM [25]: 49.5%
Activity [26]: 6.76%
inhibition [27]: Dose-dependent effect
